Structures can show the parent of a compound that is named as a salt.
Key:
[1] = target: T1, PAR1 thrombin receptor (Homo sapiens, UniProt P25116); test: Receptor binding assay (high affinity TRAP displacement, platelet membrane); conditions: platelet membrane of healthy adult, [3H] high affinity TRAP, 37° C. 1 hour; read-out: RBA IC50
T1 construct: homogenized with a Dounce homogenizer, and then centrifuged at 40,000 g for 60 minutes to yield platelet membrane; from tissue; host or cells: platelet membrane prepared from the blood of a healthy adult donor
T1 sequence (P25116 22-425): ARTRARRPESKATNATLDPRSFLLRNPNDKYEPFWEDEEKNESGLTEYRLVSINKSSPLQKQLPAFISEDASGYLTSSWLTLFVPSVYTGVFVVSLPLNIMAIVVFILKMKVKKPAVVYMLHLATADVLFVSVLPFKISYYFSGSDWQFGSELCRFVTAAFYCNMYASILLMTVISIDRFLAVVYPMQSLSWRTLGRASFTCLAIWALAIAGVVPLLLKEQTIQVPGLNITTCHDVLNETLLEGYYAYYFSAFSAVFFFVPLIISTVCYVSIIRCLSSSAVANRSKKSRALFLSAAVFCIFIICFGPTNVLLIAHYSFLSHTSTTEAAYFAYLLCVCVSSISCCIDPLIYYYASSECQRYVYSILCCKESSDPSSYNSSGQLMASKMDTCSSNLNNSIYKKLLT
Procedure: Blood was sampled from a healthy adult who had taken no drugs for one week, and 3.8% citric acid (a ratio of 1:9 with respect to the blood) was added as an anticoagulant. The mixture was then centrifuged at 100 g for 10 minutes at room temperature to yield platelet rich plasma (PRP). The platelet precipitate obtained by centrifuging the PRP was homogenized with a Dounce homogenizer, and then centrifuged at 40,000 g for 60 minutes to yield platelet membrane. The platelet membrane was suspended in a solution prepared by adding DMSO (dimethyl sulfoxide) at 1% concentration to Buffer 1: a 50 mM Tris-HCl buffer containing 10 mM MgCl2 and 1 mM EGTA (ethylene glycol tetraacetic acid), and the suspension was stored at −80° C. Bovine albumin and DMSO were added to Buffer 1 at 0.1% and 20%, respectively, to make a preparation solution for the test compound. […] Next, 30 μl of liquid scintillator was added for measurement of the radioactivity of the plate using a Top Counter (Packard), the value of the radioactivity in the presence of the test compound minus non-specific binding portion was divided by the specific binding value (the value of the binding in the absence of the compound minus the non-specific binding portion) to determine the binding ratio, from which the IC50 value was calculated. […]

[2] = tested on: platelet rich plasma (PRP), thrombin-induced platelet aggregation; test: Inhibitory effects on platelet aggregation using platelet rich plasma (thrombin-induced); type: cell-based; conditions: Homo sapiens, PRP of healthy adult, thrombin 0.5-1.5 units/ml, area under aggregation curve, read-out: Thr IC50
Procedure: [Inhibitory Effects on Platelet Aggregation using Platelet Rich Plasma]
Blood was sampled from a healthy adult who had taken no drugs for one week, and 3.8% citric acid (a ratio of 1:9 with respect to the blood) was added as an anticoagulant. The mixture was then centrifuged at 100 g for 10 minutes at room temperature to yield platelet rich plasma (PRP). The PRP-removed blood was further centrifuged at 1000 g for 10 minutes to yield platelet poor plasma (PPP). The number of platelet was counted using a multi-parameter automatic hemocyte counter (K4500, Sysmex), and the PRP was diluted to approximately 300,000/μl with the PPP. The platelet aggregation activity was determined in the following manner using an Aggregometer (MC Medical). […] After addition of thrombin, the aggregation reaction was examined for 6 minutes and the areas under the aggregation curves were compared to determine the inhibition ratio, from which the IC50 value was calculated.

Q: Which results are given for `CC(C)(C)c1cc(C(=O)Cn2c(=N)n(Cc3ccc(N)cc3)c3ccccc32)cc(C(C)(C)C)c1O` [Example 40, 2-[3-(4-amino-benzyl)-2-imino-2,3-di-hydro-benzimida-zol-1-yl]-1-(3,5-di-tert-bu-tyl-4-hydroxy-phenyl)-ethanone dihydrochloride]?
A: IC50 [1]: 260 nM; IC50 [2]: 1300 nM

From patent US20040242627A1, “2-Iminoimidazole derivatives (1)” (priority 2001, published 2004)
